We go through 4 molecules from ChEMBL document CHEMBL1201862, “PubChem BioAssay data set” (2004).

Some test systems named below: SK-MEL-28; SF-268; U-251; SK-OV-3; SF-295; MOLT-4; 786-0; SW-620; UO-31; IGROV-1; SN12C; HL-60; TK-10; UACC-62; HCT-15; M14; SNB-19; CAKI-1; CCRF-CEM; OVCAR-4.
Common to all, as to experiment: inhibition of tumour cell growth, NCI panel, 48 h

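Growth conditions: 96-well plates. Treatment: test compound, 48 hours, 5 concentrations. Analysis: linear interpolation between bracketing concentrations; unreached endpoints set to highest concentration. GI50: concentration for 50% inhibition of growth.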 Active and inactive are the calls of the source. No stated cut-off is given here; in the data, active = GI50 up to about 1.1 µM and inactive = higher.

For the molecule `CC1=NN(C(=O)c2ccccc2O)C(=O)/C1=C/c1ccco1`, the GI50 in the test with SK-MEL-28 is 14.6 µM (inactive); with SF-268 it was 1.11 µM (active); in the test on U-251 it was 6.89 µM (inactive); with SK-OV-3 it was 5.7 µM (inactive); in the test with SF-295, 3.58 µM (inactive); with MOLT-4, 1.93 µM (inactive). In addition, the GI50 in the test on 786-0 was 1.64 µM (inactive); with SW-620, 3.3 µM (inactive); in the test with UO-31, 0.404 µM (active); with IGROV-1 it was 1.26 µM (inactive); in the test on SN12C, 2.96 µM (inactive); in the test with HL-60, 1.49 µM (inactive). For the same molecule, the GI50 is 33.9 µM (inactive) in the test on TK-10; 0.436 µM (active) in the test with UACC-62; 2.22 µM in the test on HCT-15; 1.93 µM (inactive) with M14; 7.55 µM (inactive) with SNB-19; 1.61 µM (inactive) in the test on CAKI-1. The GI50 in the test on CCRF-CEM was 1.61 µM (inactive); in the test with OVCAR-4, 3.46 µM (inactive).

Take `O=[N+]([O-])c1cc(/C=N\NS(=O)(=O)c2ccc(Cl)cc2)c(O)c([N+](=O)[O-])c1`: the GI50 in the test on SK-MEL-28 is 93.3 µM (inactive); in the test with SF-268, 38 µM (inactive); in the test with U-251 it was 24 µM (inactive); in the test on SK-OV-3 it was 31.3 µM (inactive); with SF-295, 32.9 µM (inactive); in the test with MOLT-4, 29.2 µM (inactive). Further, the GI50 in the test on 786-0 is 36.1 µM (inactive); in the test with SW-620 it was 34.6 µM (inactive); in the test on UO-31 it was 71.4 µM (inactive); with IGROV-1, 74.8 µM (inactive); in the test on SN12C, 25.6 µM (inactive); in the test on HL-60 it was 26.7 µM (inactive). Besides, the GI50 is > 100 µM (inactive) in the test with TK-10; 32.4 µM (inactive) with UACC-62; 21.4 µM with HCT-15; 32.4 µM (inactive) with M14; 20.9 µM (inactive) in the test with SNB-19; 30.5 µM (inactive) in the test on CAKI-1. The values for the GI50 in the test on CCRF-CEM and with OVCAR-4 were 24.4 µM (inactive) and 36.7 µM (inactive), respectively.

Turning to `Brc1ccc2[nH]cc(-c3nc(-c4c[nH]c5ccccc45)cs3)c2c1`, the GI50 with SK-MEL-28 was 5.81 µM (inactive); in the test on SF-268, 3 µM (inactive); in the test on U-251 it was 3.01 µM (inactive); in the test on SK-OV-3, 8.13 µM (inactive); in the test on SF-295, 2.84 µM (inactive); in the test with MOLT-4 it was 2.11 µM (inactive). Further, the GI50 with 786-0 was 2.86 µM (inactive); in the test on SW-620 it was 3.16 µM (inactive); in the test with UO-31, 2.97 µM (inactive); in the test with IGROV-1, 1.58 µM (inactive); in the test on SN12C, 3.49 µM (inactive); in the test with HL-60, 3.37 µM (inactive). The GI50 with TK-10 was 3.56 µM (inactive); in the test on UACC-62, 2.37 µM (inactive); with HCT-15, 2.39 µM; in the test with M14, 1.74 µM (inactive); in the test with SNB-19 it was 3.51 µM (inactive); in the test with CAKI-1 it was 2.74 µM (inactive). Further, the GI50 with CCRF-CEM is 3.79 µM (inactive); in the test with OVCAR-4, 6.03 µM (inactive).

As to `O=C1C(Cl)=C(Cl)C(=O)N1c1ccccc1Cl`, the GI50 was > 100 µM (inactive) with SK-MEL-28; > 100 µM (inactive) with SF-268; > 100 µM (inactive) in the test on U-251; > 100 µM (inactive) in the test on SK-OV-3; > 100 µM (inactive) with SF-295; 30.9 µM (inactive) with MOLT-4. Besides, the GI50 was > 79.3 µM (inactive) in the test with 786-0; > 52.6 µM (inactive) in the test with SW-620; > 100 µM (inactive) with UO-31; > 100 µM (inactive) in the test on IGROV-1; > 100 µM (inactive) in the test on SN12C; 15.3 µM (inactive) in the test with HL-60. The GI50 in the test on TK-10 was > 100 µM (inactive); in the test on UACC-62 it was > 100 µM (inactive); with HCT-15 it was greater than 53.6 µM; with M14, > 75.9 µM (inactive); with SNB-19 it was > 100 µM (inactive); with CAKI-1, > 44.2 µM (inactive). Also, the GI50 was 11.9 µM (inactive) with CCRF-CEM and > 100 µM (inactive) in the test on OVCAR-4.
